Assay results reported in US9161543B2, “Biocontrol through the use of chlorine-stabilizer blends” (NALCO COMPANY, priority 2011, dated 2015).

Experiment: Blending of stabilizer and sodium hypochlorite: residual oxidant (TRO, FRO) and yield
Format: physicochemical
Conditions: Molar Ratio Cl2:N2 4:1
Method: A number of biocide formulations were prepared and were applied to samples of process water from a paper mill.

FRO (free residual oxidant) (Caustic in Bleach = 0.5%): 1219 ppm | FRO/TRO (Caustic in Bleach = 0.5%): 18.61% | TRO (total residual oxidant) (Caustic in Bleach = 0.5%): 6550 ppm | TRO Yield (Caustic in Bleach = 0.5%): 80.93% | FRO (free residual oxidant) (Caustic in Bleach = 3.2%): 1450 ppm | FRO/TRO (Caustic in Bleach = 3.2%): 23.02% | TRO (total residual oxidant) (Caustic in Bleach = 3.2%): 6300 ppm | TRO Yield (Caustic in Bleach = 3.2%): 77.84%
SMILES: NS(=O)(=O)O [sulfamic acid]
